Entries after “also recorded” stand apart in the source; their conditions may differ.
Key:
[1] = system: global H3K27me3 levels in Karpas-422 GCB-DLBCL cells; assay: H3K27me3 western blotting in Karpas-422 cells treated with EZH2 inhibitors; format: cell-based, human; conditions: 1.5 μM, 4 days, vs DMSO, total H3 as control
Experimental: Lymphoma cell lines were grown in 10 ml cultures (as described in 2.1). […] After drug treatment, cells were centrifuged at 500×g for 3 min, supernatant was removed, and cell pellet was resuspended in 0.75 ml Trizol Reagent (Life Technologies, catalog #15596-026). RNA was extracted as per the manufacturer's protocol, resuspended in nuclease-free water, quantified using a NanoDrop 2000 UV-vis spectrophotometer (Thermo Scientific), and sent to Ocean Ridge Biosciences (http://www.oceanridgebio.com/) for RNA-sequencing. […]
In order to detect potential EZH2 inhibitor-mediated gene expression changes that could serve as a manifestation of target engagement, Karpas-422 GCB-DLBCL cells were treated with vehicle (dimethyl sulfoxide; DMSO) or Compound 1 for 4 days. […] The samples that were committed to RNA-sequencing were analyzed for changes in H3K27me3 levels by western blotting. […]

[2] = system: RL xenograft; assay: Multiplexed QuantiGene assay of signature genes in RL mouse xenograft tumors; format: in vivo; conditions: 200 mg/kg twice daily, day 18, tumors harvested 6 hours post-last dose
Experimental: (§1) To verify the gene signature as a readout of target engagement and not phenotypic responsive, an EZH2 inhibitor-insensitive GCB-DLBCL cell line, RL, was utilized in a mouse xenograft model. The RL xenograft bearing mice were treated twice daily with 200 mg/kg Compound 2 or vehicle control for 18 days. […] Tumors were harvested 6 hours post-last dose on day 18 of treatment and processed and analyzed using the QuantiGene® Plex assay, as described above.
(§2) For each gene in each sample, the background median fluorescence intensity (MFI) value (recorded on the Luminex Magpix) was subtracted from the gene's measured MFI value. […]
(§3) Following regularization, the data from each well was processed independently by first generating a normalization factor by taking the geometric mean of regularized background-subtracted MFI values for 4 housekeeping genes (ACTB, POLR2A, PPIB, TBP). […] If more than 1 technical replicate was run for an individual sample, an average value was then calculated for each gene. These values were then converted to log 2 space, and log 2 fold change values were determined by subtracting vehicle/control values from treated values. […]
To determine the statistical significance of the engagement score, a phenotype permutation test was performed by randomly assigning the empirically determined expression values for each gene to the control or treated condition. […]

[3] = system: RL xenograft (EZH2 inhibitor-insensitive GCB-DLBCL cell line); assay: RL mouse xenograft tumor volume; format: in vivo; conditions: 200 mg/kg twice daily, 18 days
Experimental: as §1

[4] = system: Karpas-422 xenograft; assay: Multiplexed QuantiGene assay of signature genes in Karpas-422 mouse xenograft tumors; format: in vivo
Experimental: (§4) FIGS. 4A and B illustrate a comparison of Compound 1-mediated H3K27me3 level and gene expression changes in phenotypically responsive Karpas-422 xenografts where (A) represents tumor samples (n=4) from a Karpas-422 mouse xenograft experiment in which mice were dosed twice daily, orally with vehicle, 100 or 200 mg/kg of Compound 1 for 4, 7, or 14 days, and were analyzed by ELISA assays to determine H3K27me3 levels; and (B) is the same tumor samples described in (A) (n=4), but were analyzed by a multiplexed QuantiGene® assay for the transcript levels of 50 genes, 4 of which were housekeeping.
For isolation of RNA from tissues: Tumor samples from a Karpas-422 mouse xenograft experiment in which mice were dosed BID with vehicle, 100 or 200 mpk Compound 1 for 4, 7, or 14 days, were obtained. Tumors were frozen in liquid nitrogen, then pulverized. A small aliquot of frozen, pulverized tissue was resuspended in 600 μl buffer RLT (Qiagen) containing 65 mM DTT, applied to a QIAShredder column (Qiagen), and centrifuged for 3 min at 20,000×g. […] RNA was eluted in nuclease-free water, and concentrations were normalized following quantitation on a NanoDrop 2000 UV-vis spectrophotometer.
Initial tests were performed to determine the linearity of the QuantiGene® Plex Set, followed by full validation of the assay showing time- and dose-dependent gene expression changes in a mouse xenograft treated with Compound 1. […] The QuantiGene® assay was performed as per the manufacturer's protocol, and quantitated on a Luminex Magpix. […]
as §2
as §3, with “gene.” for “gene. These values were then converted to log 2 space, and log 2 fold change values were determined by subtracting vehicle/control values from treated values.”

[5] = system: H3K27me3 levels in Karpas-422 xenografts; assay: H3K27me3 ELISA of Karpas-422 mouse xenograft tumor samples; format: in vivo; conditions: Karpas-422 xenograft, 100 or 200 mg/kg BID oral
Experimental: as §4

[6] = system: Karpas-422 GCB-DLBCL cells; assay: RNA-sequencing gene expression profiling of Karpas-422 cells; format: cell-based, human; conditions: 1.5 μM, 4 days
Experimental: Lymphoma cell lines were grown in 10 ml cultures (as described in 2.1). Cells were treated with 0.1% DMSO, 1.5 μM Compound 1 or in the presence of 1.5 μM other EZH2 inhibitors such as GSK126 and EPZ6438 for 4 days. After drug treatment, cells were centrifuged at 500×g for 3 min, supernatant was removed, and cell pellet was resuspended in 0.75 ml Trizol Reagent (Life Technologies, catalog #15596-026). RNA was extracted as per the manufacturer's protocol, resuspended in nuclease-free water, quantified using a NanoDrop 2000 UV-vis spectrophotometer (Thermo Scientific), and sent to Ocean Ridge Biosciences (http://www.oceanridgebio.com/) for RNA-sequencing. Cell samples were collected and total RNA was prepared (see 2.2). […] (2) 7 DLBCL cell lines treated for 4 days with GSK343 (generated in two separate experiments, with HT and SUDHL6 comprising the first experiments, the other 5 cell lines in a second experiment. For the HT and SUDHL6 cell samples in dataset 2, reads were aligned to the hg19 genome using bowtie version 0.12.9. The other datasets were aligned to the hg19 genome with Tophat 1.4.1 The aligned read files were sorted and duplicates removed using sort and rmdup functions from samtools version 0.1.182. See Li, H. et al. The Sequence Alignment/Map format and SAMtools. Bioinformatics 25, 2078-2079 (2009). […]

[7] = system: Karpas-422 cells; assay: Multiplexed QuantiGene assay of EZH2-controlled signature genes in Karpas-422 cells in vitro; format: cell-based, human; conditions: 1.5 μM, 4 days, vs DMSO
Experimental: The gene list described in Table 2 was submitted to Affymetrix, and a multiplexed QuantiGene® assay (https://www.ebioscience.com/application/gene-expression/quantigene-plex-assay.htm) probe set on the basis was generated specific to the human genome (see Appendix B). The primer and probe sequences used to generate the multiplex assay were not made available by the vendor.
In addition to validating the assay using a Karpas-422 mouse xenograft model, RNA from Karpas-422 cells treated with 1.5 μM Compound 1 for 4 days was also used. Samples were processed and quantitated as described above. […]
as §2, §3

Compound | global H3K27me3 levels (western blotting) [1] | gene signature score (QuantiGene) [2] | tumor volume vs vehicle-treated mice [3] | signature gene expression in tumors vs vehicle-treated tumors ([4]; 100 or 200 mg/kg BID oral, 4, 7 and 14 days, tumors harvested 6 hours post last dose) | gene expression signature (aggregate gene score), treatment arms vs vehicle arms ([4]; 100 or 200 mg/kg BID oral, all three time points (4, 7, 14 days)) | magnitude of signature gene expression changes in tumors compared with cells treated in vitro ([4]; 4 days, 100 mg/kg BID and 200 mg/kg BID, vs cells at 1.5 μM for 4 days) | H3K27me3 levels normalized to total histone H3 (ELISA) ([5]; 14 days, t-test p<0.05 vs vehicle) | H3K27me3 levels normalized to total histone H3 (ELISA) ([5]; earlier time points (4, 7 days)) | gene expression changes compared with those of other EZH2 inhibitors (GSK126, EPZ-6438) [6] | number of genes with significantly changed expression ([6]; vs DMSO, log 2 fold change >0.8, p<0.05) [genes] | signature gene expression (QuantiGene) [7]
CCC(C)n1cc(C)c2c(C(=O)NCc3c(C)cc(C)[nH]c3=O)cc(-c3ccc(N4CCNCC4)nc3)cc21 (stereo not drawn) [GSK126, reference compound] | substantial loss of H3K27me3 |  |  |  |  |  |  |  |  |  | 
CCS(=O)(=O)N1CCC([C@@H](C)n2c(C)c(C(=O)NCc3c(OC)cc(C)[nH]c3=O)c3ccccc32)CC1 [Compound 2] |  | statistically significant gene signature score | No reduction in tumor volume |  |  |  |  |  |  |  | 
COc1cc(C)[nH]c(=O)c1CNC(=O)c1c(C)n([C@H](C)C2CCN(CC(F)(F)F)CC2)c2ccccc12 [Compound 1, (R)—N-((4-methoxy-6-methyl-2-oxo-1,2-dihydropyridin-3-yl)methyl)-2-methyl-1-(1-(1-(2,2,2-trifluoroethyl)piperidin-4-yl)ethyl)-1H-indole-3-carboxamide] | effectively reduced global H3K27me3 levels |  |  | significant induction of signature genes in a dose- and time-dependent manner; also recorded: significant alteration of signature genes; also recorded: significantly induced EZH2-target genes | robust and statistically significant change | did not show the same magnitude of signature gene expression changes | significant reduction in H3K27me3 levels | not statistically significant | remarkably similar | 604 | significant increase and decrease of signature gene expression
